For orientation: EC50 means the concentration at which the effect is half-maximal.

We go through four compounds from patent publication US20230226043A1 (priority 2020, published 2023).

The test system of data set [1] is SARS-CoV-2. Particulars: 10 μM; cited from earlier work.
Another data set has as its system non-senescent BV2 cells. As to the kind of experiment: Viability of non-senescent BV2 cells, sulforhodamine B (SRB) assay. The format is cell-based. The settings on record: 48 h exposure, masitinib 0.1-2 μM and/or isoquercetin 1-20 μM. The procedure: (§1) BV2 cells are retroviral-immortalized microglia-like cells, which are used as a model for cellular senescence. BV2 cells were cultured in Dulbecco's modified Eagle's medium supplemented with 10% heat-inactivated fetal bovine serum (hiFBS) and plated in 6-well multiwell plates for treatment and flow cytometry analysis.
(§2) For cellular viability analysis of non-senescent cells (BV2 cells) and senescent cells (BV2 cells pretreated with TMZ), cells were plated in 96-well multiwell plates during 72 hours. […] After 48 hours of treatment, cell viability was analyzed by sulforhodamine B (SRB) assay. The optical density (OD) of each well was read in a 96-well plate reader at 540 nm. The OD of the SRB solution is directly proportional to the cell number.
(Sulforhodamine B stains cellular protein and so reports cell mass.)

The subject of the next data set is senescent BV2 cells. Briefly: Viability of senescent BV2 cells (pretreated with TMZ), SRB assay. The settings on record: for cell viability of senescent BV2 cells, single agent: single agent below the high concentrations (2 μM masitinib, 20 μM isoquercetin). It is filed as cell-based. The procedure:
as §1
BV2 cells were treated with temozolomide (TMZ), an alkylating agent inducing DNA damage, in order to induce senescence of the cells. For senescence induction studies, cells were plated and treated twice with increasing doses (10-150 μM) of TMZ during 5 hours every 24 hours. After exposure of BV2 cells to two successive treatments with TMZ, their proliferation was reduced and the cells developed a characteristic senescent phenotype with enlarged size and flat-granulated shape. The senescent phenotype of BV2 cells after TMZ-induced genotoxicity was further confirmed by measuring the number of cells displaying β-gal activity, a well-recognized marker of cellular senescence. After the second TMZ-treatment, flow cytometry analysis was thus carried out using a 5-Dodecanoylaminofluorescein Di-β-D-Galactopyranoside (C12FDG) kit to measure β-galactosidase activity by the alkalinization of lysosomes as described by the manufacturer's instructions (Thermo Fisher Scientific, #D2893). TMZ induced a dose-dependent increase in the number β-gal+ cells. Up to 60% of β-gal+BV2 cells, i.e., senescent cells, were obtained at a TMZ concentration of 100 μM (data not shown).
as §2

Data set [2] concerns SARS-CoV-2. As to the kind of experiment: SARS-CoV-2 intranasal challenge of K18-hACE2 mice. Particulars: bid, ip, vs PBS; for clinical score: 1-6 days post infection.
Data set [3] deals with SARS-CoV-2. As to the kind of experiment: SARS-CoV-2 progeny production, plaque titers on Vero E6 cells. The format is cell-based. The settings on record: 10 μM; for decrease of SARS-CoV-2 progeny production: 2 h pre-treatment, MOI 0.5, supernatant 2 days. The method, then:
For SARS-CoV-2 plaque titers, cell supernatants from the infection described above were serially diluted (10-fold steps were used) and used to infect Vero E6 cells for 1 hour. Inoculum was removed and 1.25% methylcellulose DMEM solution was added to the cells and incubated for 3 days. Plates were fixed in 1:10 formalin for 1 hour, stained with crystal violet for 1 hour and were counted to determine plaque forming units (PFU)/ml.

Data set [4] concerns OC43. Briefly: OC43 replication in primary human airway epithelial cells. It is filed as cell-based, human beta coronavirus OC43 (HCoV-OC43). Particulars: Betacoronavirus 1, OC43, Epithelial cell, read-out: EC50, inhibition of OC43 replication.
Data set [5] has as its system OC43. Briefly: Drug repurposing screen, OC43 nucleoprotein staining in A549-mRuby cells. The format is cell-based, human beta coronavirus OC43 (HCoV-OC43). The settings on record: for % staining of OC43: normalized to no-drug controls in the same plate. The procedure: (§3) Cells were seeded in a final volume of […] with DMEM+10% BCS. […] All the following steps were performed at room temperature. […] The screen was performed twice.

In data set [6] the test system is OC43. Briefly: Dose-response analysis of OC43 infection in A549-mRuby cells. The format is cell-based, human beta coronavirus OC43 (HCoV-OC43). Particulars: Betacoronavirus 1, OC43, A549, 48 h, read-out: EC50 against OC43 infection. The method, then:
Dose-response analysis of OC43 infection was done similarly to the drug screening, except cells were seeded at a concentration of 5,000 cells per well and the media contained 2% BCS instead of 10% BCS. OC43 staining was performed 2 days after infection and analyzed similarly to what was described for the drug screening. A sigmoid fit was used to extract EC50 values using Matlab.

Data set [7] relates to Chikungunya virus (CHIKV). As to the kind of experiment: Chikungunya virus infection. Particulars: 10 μM, n=3, p>0.07. The format is cell-based.
The subject of a further data set is measles virus (MeV). Briefly: Measles virus inhibition assay in Vero cells, luciferase. It is filed as cell-based. Particulars: 10 μM, n=3, p>0.07. The method, then: Vero cells were infected with a luciferase-expressing measles virus at an MOI of 0.01 for 90 minutes. The inoculum was removed and added fresh medium containing masitinib or DMSO to the cells for further culture. Three days later, firefly luciferase activity was measured by adding 0.5 mM of D-Luciferin to each well and was quantified with an Infinite M200 Pro multimode microplate reader.

A further data set concerns influenza A virus (IAV). Briefly: Influenza A infection of MDCK-SIAT1-TMPRSS2 cells. It is filed as cell-based, Influenza A/Puerto Rico/8/1934 (PR8). The settings on record: 10 μM, n=3, p>0.07. The procedure:
MDCK-SIAT1-TMPRSS2 cells were infected with Influenza A/Puerto Rico/8/1934 (PR8) at an MOI of 0.01 TCID50/cell. Following a 1 hour adsorption, virus was removed and the cells were washed. […] Supernatants were harvested and clarified at 20 hours post infection. The supernatants were titrated using TCID on MDCK-SIAT1-TMPRSS2 cells.

Data set [8] has as its target picornaviruses 3C protease (Coxsackievirus B3, UniProt P03313). Briefly: 3C protease activity assay, luciferase reporter in Huh7 cells. Particulars: n=6, p-value=7×10-6. (Reporter assays use an easily measured gene product as a stand-in for the process of interest.)
For another data set, the system named is coxsackievirus B3 (CVB3). As to the kind of experiment: Picornavirus infection of Huh7 cells, plaque titration. The settings on record: 10 M [sic] masitinib, MOI 0.01, 24 h. The format is cell-based. The procedure: (§4) Prior to infection, Huh7 cells were pretreated for two hours. Virus was diluted using serum-free DMEM (SFM) to achieve an MOI of 0.01. Cell supernatants (collected at 24 hours post infection) were dilutions in SFM and used to inoculate Vero cells for 10-15 min at 37 C. Cells were incubated for 2 days at 37 C after overlaying them DMEM containing 2% NBCS and 0.8% agarose. […] The number of plaque forming units (PFU/per milliliter) were then calculated.

For data set [9], the system named is human rhinovirus 14 (HRV14). The data set is described as above. It is filed as cell-based. The settings on record: 10 M [sic] masitinib, MOI 0.01, 24 h. The method, then: as §4
Data set [10] concerns human rhinovirus 2 (HRV2). Described as above. The format is cell-based. The settings on record: 10 M [sic] masitinib, MOI 0.01, 24 h. The procedure:
as §4

The subject of data set [11] is human rhinovirus 16 (HRV16). The data set is described as above. It is filed as cell-based. The settings on record: 10 M [sic] masitinib, MOI 0.01, 24 h. The method, then: as §4
The next data set has as its system A549-mRuby cells. Briefly: Cell growth in the drug screen (cell numbers day 4 / day 0). It is filed as cell-based, human. The method, then:
as §3

Data set [12] has as its system lymphocytic choriomeningitis virus (LCMV). The format is cell-based. Particulars: 10 μM, n=2, p>0.07.
Setting [13] is: 25 or 50 mg/kg, 4 and 6 days post infection.

Chain of picornaviruses 3C protease (P03313 1541-1723 limits assumed): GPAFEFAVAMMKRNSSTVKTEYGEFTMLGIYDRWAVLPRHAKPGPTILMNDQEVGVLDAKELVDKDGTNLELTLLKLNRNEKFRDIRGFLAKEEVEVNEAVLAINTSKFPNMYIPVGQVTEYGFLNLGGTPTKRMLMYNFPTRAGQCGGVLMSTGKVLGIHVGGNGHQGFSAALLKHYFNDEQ

Take `O=CC(CC1CCNC1=O)NC(=O)C(CC1CCCCC1)NC(=O)c1cc2ccccc2[nH]1` (stereo not shown) [11a]: in the data set with SARS-CoV-2 [1], the “inhibition of SARS-CoV-2 progeny production” value is given as 2 logs.

Consider `O=CC(CC1CCNC1=O)NC(=O)C(Cc1cccc(F)c1)NC(=O)c1cc2ccccc2[nH]1` (stereo not shown) [11b], for which the “inhibition of SARS-CoV-2 progeny production” value in the data set on SARS-CoV-2 [1] was 2 logs.

For the compound `O=c1c(O[C@@H]2O[C@H](CO)[C@@H](O)[C@H](O)[C@H]2O)c(-c2ccc(O)c(O)c2)oc2cc(O)cc(O)c12` [isoquercetin, 2-(3,4-dihydroxyphenyl)-5,7-dihydroxy-3-[(2S,3R,4S,5S,6R)-3,4,5-trihydroxy-6-(hydroxymethyl)oxan-2-yl]oxychromen-4-one], the “cell viability of non-senescent proliferating BV2 cells” value in the data set with non-senescent BV2 cells is given as “no significant change in cell viability”. The cytotoxicity at 20 µM in the data set on senescent BV2 cells (Mus musculus, BV-2, 20 μM isoquercetin alone, 48 h, TMZ-induced senescent BV2 cells, read-out: reduction in senescent cell viability) was ~25%. Also, in the data set on senescent BV2 cells, the “cell viability of senescent BV2 cells, single agent” value is given as “modest reduction in cell viability”.

Turning to `Cc1ccc(NC(=O)c2ccc(CN3CCN(C)CC3)cc2)cc1Nc1nc(-c2cccnc2)cs1` [masitinib, 4-(4-methylpiperazin-1-ylmethyl)-N-[4-methyl-3-(4-pyridin-3ylthiazol-2-ylamino)phenyl]benzamide], the clinical score entry in the data set with SARS-CoV-2 [2] (25 mg/kg) and with SARS-CoV-2 [2] (50 mg/kg) was “significant decrease” throughout. For the same compound, in the data set with SARS-CoV-2 [2] (setting [13]), the “SARS-CoV-2 viral load in the lung” value was “significant decrease”. Also, in the data set with SARS-CoV-2 [2] (setting [13]), the “SARS-CoV-2 viral load in the nasal turbinates” value is on record as “significant decrease”. Also, the “decrease of SARS-CoV-2 progeny production” value is recorded as “over 5 logs” with SARS-CoV-2 [3] and > 5 logs in the data set on SARS-CoV-2 [3] (listed as Masitinib). In addition, the “reduction in viral titers (SARS-CoV-2 progeny)” value in the data set on SARS-CoV-2 [3] (n=3, p<0.001) is “statistically significant”. For the same compound, the EC50 in the data set on OC43 [4] came to 580 nM; with OC43 [6] it was 2100 nM. Moreover, in the data set with OC43 [5] (mean of two screen repeats, normalized to no-drug controls (=100), drug at 10 PM as printed, day 4), the “mean % staining of OC43” value came to 12.2%. Besides, the “% staining of OC43” value worked out at 14.4% in the data set with OC43 [5] (screen repeat #1) and 10.1% with OC43 [5] (screen repeat #2). Further, in data set [7], the “effect on cells infected by Chikungunya virus (CHIKV)” value was “did not show a significant effect”. Also, in the data set with measles virus (MeV), the “effect on cells infected by measles virus (MeV)” value was “did not show a significant effect”. The “effect on cells infected by influenza A virus (IAV)” value in the data set on influenza A virus (IAV) is recorded as “did not show a significant effect”. The “activity of the 3C protease in cells” value in data set [8] is “significantly inhibited”. The “replication of coxsackievirus B3 (CVB3)” value in the data set on coxsackievirus B3 (CVB3) is listed as “effective in blocking the replication”. For the same compound, the “replication of human rhinovirus 14 (HRV14)” value in data set [9] was “effective in blocking the replication”. Further, the “replication of human rhinovirus 2 (HRV2)” value in data set [10] is “effective in blocking the replication”. In addition, the “replication of human rhinovirus 16 (HRV16)” value in data set [11] was “effective in blocking the replication”. For the same compound, the “number of cells at day 4 divided by number of cells at day 0” value in the data set on A549-mRuby cells (screen repeat #1) is listed as 4.3; in the data set with A549-mRuby cells (screen repeat #2) it was 4.7. Also, the “effect on cells infected by lymphocytic choriomeningitis virus (LCMV)” value in data set [12] was “did not show a significant effect”. In addition, the “cell viability of non-senescent proliferating BV2 cells” value in the data set on non-senescent BV2 cells is reported as “no significant change in cell viability”. For the same compound, the cytotoxicity at 2 µM in the data set on senescent BV2 cells (Mus musculus, BV-2, 48 h, read-out: reduction in senescent cell viability) is ~25%. In addition, the “cell viability of senescent BV2 cells, single agent” value in the data set on senescent BV2 cells is listed as “modest reduction in cell viability”.
